From ChEMBL document CHEMBL1130603, “Studies on the C-terminal of hexapeptide inhibitors of the hepatitis C virus serine protease” (Bioorg Med Chem Lett, 1998)
Square brackets hold non-standard residues; d marks the D form. Peptide text beside a SMILES is read from it. * marks the point of attachment. Nle = CCCC[C@H](N)C(=O)O; Nva = CCC[C@H](N)C(=O)O; Abu = CC[C@H](N)C(=O)O; CF3 = FC(F)(F)*

How the values were obtained:
Pancreatic elastase = Pancreatic elastase (Sus scrofa, UniProt P08419+P00772); experiment: Compound was tested for inhibition of porcine pancreatic elastase (PPE); format: protein assay
Cathepsin B = Cathepsin B (Homo sapiens, UniProt P07858); experiment: Compound was tested for inhibition of human liver Cathepsin B
[1] = target: T1, Hepatitis C virus serine protease, NS3/NS4A (Hepatitis C virus, UniProt D2K2A8+A3EZI9); experiment: (§1) Inhibition of hepatitis C virus (HCV) NS3 protease.; format: protein-complex assay, Hepacivirus hominis
[2] = Compound was tested for inhibition of bovine pancreatic alpha-chymotrypsin; design: species or system Bos taurus
Neutrophil elastase = target: T2, Neutrophil elastase (Homo sapiens, UniProt P08246); experiment: Compound was tested for inhibition of human leucocyte elastase (HLE)
T2 sequence (P08246 whole entry): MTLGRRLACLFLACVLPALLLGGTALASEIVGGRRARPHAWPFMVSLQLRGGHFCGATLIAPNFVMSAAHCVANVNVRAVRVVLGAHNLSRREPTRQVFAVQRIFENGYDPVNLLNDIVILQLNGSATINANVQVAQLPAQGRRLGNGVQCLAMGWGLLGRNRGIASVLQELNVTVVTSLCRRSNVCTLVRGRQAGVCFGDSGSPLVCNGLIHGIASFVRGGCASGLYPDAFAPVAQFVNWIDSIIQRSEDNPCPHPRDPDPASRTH

[3] = target: Hepatitis C virus serine protease, NS3/NS4A (Hepatitis C virus, UniProt A3EZI9+D2K2A8); experiment: as §1; format: protein-complex assay, Hepacivirus hominis
[4] = target: T1, Hepatitis C virus serine protease, NS3/NS4A; experiment: Compound was tested for competitive inhibition of hepatitis C virus (HCV) serine protease; format: protein-complex assay, Hepacivirus hominis

Compound | IC50 (Pancreatic elastase) [µM] | IC50 (Cathepsin B) [µM] | IC50 [2] [µM] | IC50 (Neutrophil elastase) [µM] | IC50 [3] [µM] | further results
CCC[C@@H](NC(=O)[C@@H]1CCCN1C(=O)[C@@H](NC(=O)[C@@H](NC(=O)[C@@H](CC(=O)O)NC(=O)[C@H](CC(=O)O)NC(C)=O)[C@@H](C)CC)C(C)C)C(=O)OCc1ccccc1 | > 1000 | > 1000 | 29 | > 1000 | – | IC50 [1]: 9.3 µM
CCC[C@@H](NC(=O)[C@@H]1CCCN1C(=O)[C@@H](NC(=O)[C@@H](NC(=O)[C@@H](CC(=O)O)NC(=O)[C@H](CC(=O)O)NC(C)=O)[C@@H](C)CC)C(C)C)C(=O)NC | – | – | – | – | – | IC50 [1]: 160 µM
CCC[C@@H](NC(=O)[C@@H]1CCCN1C(=O)[C@@H](NC(=O)[C@@H](NC(=O)[C@@H](CC(=O)O)NC(=O)[C@H](CC(=O)O)NC(C)=O)[C@@H](C)CC)C(C)C)C(N)=O | – | – | – | – | – | IC50 [1]: > 1000 µM
CCC[C@@H](NC(=O)[C@@H]1CCCN1C(=O)[C@@H](NC(=O)[C@@H](NC(=O)[C@@H](CC(=O)O)NC(=O)[C@H](CC(=O)O)NC(C)=O)[C@@H](C)CC)C(C)C)C(=O)OC | – | – | – | – | – | IC50 [1]: 17 µM
CCC[C@H](CO)NC(=O)[C@@H]1CCCN1C(=O)[C@@H](NC(=O)[C@@H](NC(=O)[C@@H](CC(=O)O)NC(=O)[C@H](CC(=O)O)NC(C)=O)[C@@H](C)CC)C(C)C | – | – | – | – | 280 | –
CC[C@H](C)[C@H](NC(=O)[C@@H]1CCCN1C(=O)[C@@H](NC(=O)[C@@H](NC(=O)[C@H](CC(=O)O)NC(=O)[C@H](CC(=O)O)NC(C)=O)[C@@H](C)CC)C(C)C)C(=O)O | – | – | – | – | 780 | –
CCC[C@H](NC(=O)[C@@H]1CCCN1C(=O)[C@@H](NC(=O)[C@@H](NC(=O)[C@H](CC(=O)O)NC(=O)[C@H](CC(=O)O)NC(C)=O)[C@@H](C)CC)C(C)C)C(=O)C(=O)NCc1ccccc1 | < 0.06 | 100 | 10 | 0.03 | 2 | –
CCC[C@H](NC(=O)[C@@H]1CCCN1C(=O)[C@@H](NC(=O)[C@@H](NC(=O)[C@@H](CC(=O)O)NC(=O)[C@H](CC(=O)O)NC(C)=O)[C@@H](C)CC)C(C)C)C(=O)C(=O)NCc1ccccc1 | < 0.06 | 172 | 30 | 0.1 | 0.64 | –
CC[C@@H](C)[C@H](NC(=O)[C@@H]1CCCN1C(=O)[C@@H](NC(=O)[C@@H](NC(=O)[C@H](CC(=O)O)NC(=O)[C@H](CC(=O)O)NC(C)=O)[C@@H](C)CC)C(C)C)C(=O)O | – | – | – | – | 190 | –
CCC[C@@H](NC(=O)[C@@H]1CCCN1C(=O)[C@@H](NC(=O)[C@@H](NC(=O)[C@@H](CC(=O)O)NC(=O)[C@H](CC(=O)O)NC(C)=O)[C@@H](C)CC)C(C)C)C(=O)NCc1ccccc1 | 206 | > 1000 | > 1000 | 120 | – | IC50 [1]: 52 µM
CCC[C@H](NC(=O)[C@@H]1CCCN1C(=O)[C@@H](NC(=O)[C@@H](NC(=O)[C@H](CC(=O)O)NC(=O)[C@H](CC(=O)O)NC(C)=O)[C@@H](C)CC)C(C)C)C(=O)C(F)(F)C(F)(F)F | – | – | – | – | 79 | –
CCC[C@H](NC(=O)[C@@H]1CCCN1C(=O)[C@@H](NC(=O)[C@@H](NC(=O)[C@@H](CC(=O)O)NC(=O)[C@H](CC(=O)O)NC(C)=O)[C@@H](C)CC)C(C)C)C(=O)C(F)(F)C(F)(F)F | < 0.06 | 416 | 18 | 0.06 | 12 | –
CCC[C@@H](C=O)NC(=O)[C@@H]1CCCN1C(=O)[C@@H](NC(=O)[C@@H](NC(=O)[C@@H](CC(=O)O)NC(=O)[C@H](CC(=O)O)NC(C)=O)[C@@H](C)CC)C(C)C | 2.2 | 9.5 | > 900 | 6.7 | 1.1 | –
CCC[C@@H](C=O)NC(=O)[C@@H]1CCCN1C(=O)[C@@H](NC(=O)[C@@H](NC(=O)[C@H](CC(=O)O)NC(=O)[C@H](CC(=O)O)NC(C)=O)[C@@H](C)CC)C(C)C | – | – | – | – | 10 | –
CC[C@H](C)[C@H](NC(=O)[C@H](CC(=O)O)NC(=O)[C@H](CC(=O)O)NC(C)=O)C(=O)N[C@H](C(=O)N1CCC[C@H]1C(=O)N[C@@H](CS)C(=O)O)C(C)C | – | – | – | – | 28 | –
CC[C@H](C)[C@H](NC(=O)[C@@H](CC(=O)O)NC(=O)[C@H](CC(=O)O)NC(C)=O)C(=O)N[C@H](C(=O)N1CCC[C@@H]1C(=O)N[C@@H](CS)C(=O)O)C(C)C | – | – | – | – | – | Ki [4]: 0.6 µM
CC[C@H](NC(=O)[C@@H]1CCCN1C(=O)[C@@H](NC(=O)[C@@H](NC(=O)[C@H](CC(=O)O)NC(=O)[C@H](CC(=O)O)NC(C)=O)[C@@H](C)CC)C(C)C)C(=O)O (Ac-DDIVP[Abu]-OH) | – | – | – | – | 250 | –
CCCC[C@H](NC(=O)[C@@H]1CCCN1C(=O)[C@@H](NC(=O)[C@@H](NC(=O)[C@H](CC(=O)O)NC(=O)[C@H](CC(=O)O)NC(C)=O)[C@@H](C)CC)C(C)C)C(=O)O (Ac-DDIVP[Nle]-OH) | – | – | – | – | 500 | –
CCC[C@H](NC(=O)[C@@H]1CCCN1C(=O)[C@@H](NC(=O)[C@@H](NC(=O)[C@H](CC(=O)O)NC(=O)[C@H](CC(=O)O)NC(C)=O)[C@@H](C)CC)C(C)C)C(=O)C(F)(F)F (Ac-DDIVP[Nva]-CF3) | – | – | – | – | 160 | –
CCC[C@H](NC(=O)[C@@H]1CCCN1C(=O)[C@@H](NC(=O)[C@@H](NC(=O)[C@H](CC(=O)O)NC(=O)[C@H](CC(=O)O)NC(C)=O)[C@@H](C)CC)C(C)C)C(=O)O (Ac-DDIVP[Nva]-OH) | – | – | – | – | 150 | –
CCC[C@H](NC(=O)[C@@H]1CCCN1C(=O)[C@@H](NC(=O)[C@@H](NC(=O)[C@@H](CC(=O)O)NC(=O)[C@H](CC(=O)O)NC(C)=O)[C@@H](C)CC)C(C)C)C(=O)C(F)(F)F (Ac-D[dD]IVP[Nva]-CF3) | 0.19 | > 900 | 4.5 | < 0.06 | 22 | –
CCC[C@H](NC(=O)[C@@H]1CCCN1C(=O)[C@@H](NC(=O)[C@@H](NC(=O)[C@@H](CC(=O)O)NC(=O)[C@H](CC(=O)O)NC(C)=O)[C@@H](C)CC)C(C)C)C(=O)O (Ac-D[dD]IVP[Nva]-OH) | > 1000 | > 1000 | > 1000 | > 1000 | 17 | –
Ac-DDIVPA-OH | – | – | – | – | 750 | –
Ac-DDIVPL-OH | – | – | – | – | 800 | –
